Measured values from US11214564B2, “Compounds with thymine skeleton for use in medicine” (TECHNISCHE UNIVERSITÄT DRESDEN, priority 2019, dated 2022).

Biological target: HSP27 (Homo sapiens, UniProt P04792)
Experiment: Aggregation assay: HSP27 chaperone activity on heat-induced aggregation of citrate synthase
Type: biochemical
Details: compound 10 μM; 1.44 μM CS, 481 nM HSP27, 43° C., 500 nm
Description: To test how small molecules affect the chaperone activity of HSP27, misfolding and aggregation of citrate synthase (CS), a well-known in vitro client protein of HSP27, was measured. Citrate synthase misfolds and aggregates when exposed to heat shock at 43° C. This heat denaturation is prevented or delayed in the presence of HSP27 (CS+HSP27) (Jakob et al. (1993)). […] The samples were incubated at 43° C. and the aggregation behavior of CS was monitored in a spectrometer (PerkinElmer LS55) at a wavelength of 500 nm. Substances inhibiting HSP27's chaperone activity lead to continued denaturation of the client protein and its aggregation in solution. This inhibition correlates with the strength of the interaction between HSP27 and the test substance, which is related to its binding efficiency.
In the reference experiment BVDU (CS+HSP27+BVDU) was tested at a concentration of 750 μM as previously described (Heinrich et al. (2016)).
The compounds according to the invention were tested at a concentration of 10 μM.

HSP27, sequence (P04792 whole entry): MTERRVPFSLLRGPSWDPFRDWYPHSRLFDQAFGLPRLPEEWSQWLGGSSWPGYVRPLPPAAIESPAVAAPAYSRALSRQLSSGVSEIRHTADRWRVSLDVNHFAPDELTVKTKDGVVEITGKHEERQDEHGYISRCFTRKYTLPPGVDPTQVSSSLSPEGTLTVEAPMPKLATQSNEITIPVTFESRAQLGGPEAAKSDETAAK

Row | Structure (SMILES) | aggregation value related to the value from reference experiment (CS + HSP27 + BVDU), which was set at 1.0
1 | COc1ccc(-c2cccc(CC(=O)Nc3ccc(-n4cc(C)c(=O)[nH]c4=O)cc3)c2)cc1Cl [Compound 1, 2-(3′-Chloro-4′-methoxy-[1,1′-biphenyl]-3-yl)-N-(4-(5-methyl-2,4-dioxo-3,4-dihydropyrimidin-1(2H)-yl)phenyl)acetamide] | 1.76
2 | Cc1cn(-c2ccc(NC(=O)Cc3cccc(-c4cccc(Cl)c4)c3)cc2)c(=O)[nH]c1=O [Compound 2, 2-(3′-chloro-[1,1′-biphenyl]-3-yl)-N-(4-(5-methyl-2,4-dioxo-3,4-dihydro-pyrimidin-1(2H)-yl)phenyl) acetamide] | 1.55
3 | Cc1cn(-c2ccc(NC(=O)Cc3cccc(-c4ccc(Cl)c(Cl)c4)c3)cc2)c(=O)[nH]c1=O [Compound 3, 2-(3′,4′-dichloro-[1,1′-biphenyl]-3-yl)-N-(4-(5-methyl-2,4-dioxo-3,4-dihydro-pyrimidin-1(2H)-yl)phenyl) acetamide] | 1.44
4 | Cc1ccc(-c2cccc(CC(=O)Nc3ccc(-n4cc(C)c(=O)[nH]c4=O)cc3)c2)cc1Cl [Compound 6, 2-(3′-chloro-4′-methyl-[1,1′-biphenyl]-3-yl)-N-(4-(5-methyl-2,4-dioxo-3,4-dihydropyrimidin-1(2H)-yl)phenyl) acetamide] | 1.38
5 | Cc1cn(-c2ccc(NC(=O)Cc3cccc(-c4ccc(Cl)cc4Cl)c3)cc2)c(=O)[nH]c1=O [Compound 7, 2-(2′,4′-dichloro-[1,1′-biphenyl]-3-yl)-N-(4-(5-methyl-2,4-dioxo-3,4-dihydro-pyrimidin-1(2H)-yl)phenyl) acetamide] | 1.35
6 | CC(C)Oc1ccc(-c2cccc(CC(=O)Nc3ccc(-n4ccc(=O)[nH]c4=O)cc3)c2)cc1Cl [Compound 8, 2-(3′-chloro-4′-isopropoxy-[1,1′-biphenyl]-3-yl)-N-(4-(2,4-dioxo-3,4-dihydro-pyrimidin-1(2H)-yl)phenyl) acetamide] | 1.34
7 | Cc1cn(-c2ccc(NC(=O)Cc3cccc(-c4cccc(C(F)(F)F)c4)c3)cc2)c(=O)[nH]c1=O [Compound 9, N-(4-(5-methyl-2,4-dioxo-3,4-dihydro-pyrimidin-1(2H)-yl)phenyl)-2-(3′-(trifluoromethyl)-[1,1′-biphenyl]-3-yl)acetamide] | 1.3
8 | Cc1ccc(-c2cccc(CC(=O)Nc3ccc(-n4ccc(=O)[nH]c4=O)cc3C)c2)cc1Cl [Compound 10, 2-(3′-chloro-4′-methyl-[1,1′-biphenyl]-3-yl)-N-(4-(2,4-dioxo-3,4-dihydro-pyrimidin-1(2H)-yl)-2-methyl-phenyl)acetamide] | 1.3
9 | Cc1cn(-c2ccc(NC(=O)Cc3cccc(-c4cccc(OC(F)(F)F)c4)c3)cc2)c(=O)[nH]c1=O [Compound 11, N-(4-(5-methyl-2,4-dioxo-3,4-dihydro-pyrimidin-1(2H)-yl)phenyl)-2-(3′-(trifluoro-methoxy)-[1,1′-biphenyl]-3-yl) acetamide] | 1.28
10 | COc1ccc(-c2cccc(CC(=O)Nc3ccc(-n4ccc(=O)[nH]c4=O)c(Cl)c3)c2)cc1Cl [Compound 13, 2-(3′-chloro-4′-methoxy-[1,1′-biphenyl]-3-yl)-N-(3-chloro-4-(2,4-dioxo-3,4-dihydro-pyrimidin-1(2H)-yl)phenyl) acetamide] | 1.21
11 | COc1ccc(-c2cccc(CC(=O)Nc3ccc(-n4ccc(=O)[nH]c4=O)cc3C)c2)cc1Cl [Compound 14, 2-(3′-chloro-4′-methoxy-[1,1′-biphenyl]-3-yl)-N-(4-(2,4-dioxo-3,4-dihydro-pyrimidin-1(2H)-yl)-2-methyl-phenyl)acetamide] | 1.2
12 | Cc1cn(-c2ccc(NC(=O)Cc3cccc(-c4ccc(Cl)cc4)c3)cc2)c(=O)[nH]c1=O [Compound 15, 2-(4′-chloro-[1,1′-biphenyl]-3-yl)-N-(4-(5-methyl-2,4-dioxo-3,4-dihydropyrimidin-1(2H)-yl)phenyl) acetamide] | 1.11
13 | O=C(Cc1cccc(-c2ccc(Cl)cc2)c1)Nc1ccc(-n2cc(F)c(=O)[nH]c2=O)cc1 [Compound 16, 2-(4′-chloro-[1,1′-biphenyl]-3-yl)-N-(4-(5-fluoro-2,4-dioxo-3,4-dihydro-pyrimidin-1(2H)-yl)phenyl) acetamide] | 1.04
14 | O=C(Cc1cccc(-c2cccc(OC(F)(F)F)c2)c1)Nc1ccc(-n2cc(Cl)c(=O)[nH]c2=O)cc1 [Compound 17, N-(4-(5-chloro-2,4-dioxo-3,4-dihydro-pyrimidin-1(2H)-yl)phenyl)-2-(3′-(trifluoro-methoxy)-[1,1′-biphenyl]-3-yl) acetamide] | 1.01
15 | Cc1cc(-n2ccc(=O)[nH]c2=O)ccc1NC(=O)Cc1cccc(-c2ccc(Cl)c(Cl)c2)c1 [Compound 18, 2-(3′,4′-dichloro-[1,1′-biphenyl]-3-yl)-N-(4-(2,4-dioxo-3,4-dihydro-pyrimidin-1(2H)-yl)-2-methyl-phenyl)acetamide] | 1
16 | O=C(Cc1cccc(-c2cccc(OC(F)(F)F)c2)c1)Nc1ccc(-n2ccc(=O)[nH]c2=O)c(Cl)c1 [Compound 19, N-(3-chloro-4-(2,4-dioxo-3,4-dihydro-pyrimidin-1(2H)-yl)phenyl)-2-(3′-(trifluoro-methoxy)-[1,1′-biphenyl]-3-yl) acetamide] | 0.97
17 | O=C(Cc1cccc(-c2ccc(Cl)cc2Cl)c1)Nc1ccc(-n2cc(F)c(=O)[nH]c2=O)cc1 [Compound 20, 2-(2′,4′-dichloro-[1,1′-biphenyl]-3-yl)-N-(4-(5-fluoro-2,4-dioxo-3,4-dihydro-pyrimidin-1(2H)-yl)phenyl) acetamide] | 0.96
18 | O=C(Cc1cccc(-c2ccc(Cl)c(Cl)c2)c1)Nc1ccc(-n2ccc(=O)[nH]c2=O)c(Cl)c1 [Compound 21, N-(3-chloro-4-(2,4-dioxo-3,4-dihydro-pyrimidin-1(2H)-yl)phenyl)-2-(3′,4′-dichloro-[1,1′-biphenyl]-3-yl)acetamide] | 0.94
19 | COc1cccc(-c2cccc(CC(=O)Nc3ccc(-n4cc(C)c(=O)[nH]c4=O)cc3)c2)c1 [Compound 22, 2-(3′-methoxy-[1,1′-biphenyl]-3-yl)-N-(4-(5-methyl-2,4-dioxo-3,4-dihydro-pyrimidin-1(2H)-yl)phenyl) acetamide] | 0.91
20 | Cc1cn(-c2ccc(NC(=O)Cc3cccc(-c4ccc(OC(C)C)c(Cl)c4)c3)cc2)c(=O)[nH]c1=O [Compound 23, 2-(3′-chloro-4′-isopropoxy-[1,1′-biphenyl]-3-yl)-N-(4-(5-methyl-2,4-dioxo-3,4-dihydropyrimidin-1(2H)-yl)phenyl) acetamide] | 1.33
21 | O=C(Cc1cccc(-c2ccc(Cl)cc2)c1)Nc1ccc(-n2ccc(=O)[nH]c2=O)cc1 [Compound 24, 2-(4′-chloro-[1,1′-biphenyl]-3-yl)-N-(4-(2,4-dioxo-3,4-dihydro-pyrimidin-1(2H)-yl)phenyl) acetamide] | 0.88
22 | COc1ccc(-c2cccc(CC(=O)Nc3ccc(-n4ccc(=O)[nH]c4=O)cc3F)c2)cc1Cl [Compound 25, 2-(3′-chloro-4′-methoxy-[1,1′-biphenyl]-3-yl)-N-(4-(2,4-dioxo-3,4-dihydro-pyrimidin-1(2H)-yl)-2-fluoro-phenyl)acetamide] | 0.88
23 | O=C(Cc1cccc(-c2cccc(Cl)c2)c1)Nc1ccc(-n2ccc(=O)[nH]c2=O)cc1 [Compound 26, 2-(3′-chloro-[1,1′-biphenyl]-3-yl)-N-(4-(2,4-dioxo-3,4-dihydro-pyrimidin-1(2H)-yl)phenyl) acetamide] | 0.85
24 | COc1ccc(-c2cccc(CC(=O)Nc3ccc(-n4ccc(=O)[nH]c4=O)cc3)c2)cc1Cl [Compound 27, 2-(3′-chloro-4′-methoxy-[1,1′-biphenyl]-3-yl)-N-(4-(2,4-dioxo-3,4-dihydro-pyrimidin-1(2H)-yl)phenyl) acetamide] | 0.83
25 | O=C(Cc1cccc(-c2cccc(OC(F)(F)F)c2)c1)Nc1ccc(-n2ccc(=O)[nH]c2=O)cc1F [Compound 28, N-(4-(2,4-dioxo-3,4-dihydro-pyrimidin-1(2H)-yl)-2-fluoro-phenyl)-2-(3′-(trifluoro-methoxy)-[1,1′-biphenyl]-3-yl) acetamide] | 0.82
